Results taken from patent publication US8258321B2, “Beta-lactone compounds” (Burnham Institute for Medical Research, priority 2007, dated 2012).
Where two headings read alike, the source gives them in different places.

Assays:
[1] = biological target: T1, FAS TE (Homo sapiens, UniProt P49327); experiment: Fluorogenic Assay for Detection of FASTE Inhibition (4-MUH substrate); type: biochemical; conditions: 500 nM FAS TE, 30 min pre-incubation at 37° C.
T1 construct: The unique carboxyl terminal thioesterase domain of fatty acid synthase
Method: Fluorogenic Assay for Detection of FASTE Inhibition
The synthetic fluorogenic substrate, 4-methylumbelliferyl heptanoate (4-MUH), was purchased from Sigma (St. Louis, Mo.). The reaction mixture consisted of 500 nM FAS TE in buffer (100 mM Tris-HCl, 50 mM NaCl at pH 7.4) which was pre-incubated with 2.5 μL test compounds dissolved in DMSO at final concentrations of […] and/or 0.08-10 μM at 37° C. for 30 minutes. […] 4-MUH incubated without enzyme served as a background control. Results are the average of triplicate time points.

[2] = test system: MB-MDA-231 cells; experiment: Cell Viability Assay (MTS), MB-MDA-231; type: cell-based; conditions: 3 k 231, 48 h
Method: (§1) Cell Viability Assays for Determination of Test Compound Potencies
(§2) Plates were incubated for 2 h and absorbance was assayed at 490 nm. Background levels of formazan formation were measured in medium alone. IC50 values were derived from dose-response curves.

[3] = test system: human fibroblast cells; experiment: Cell Viability Assay (MTS), human fibroblast cells (HFF); type: cell-based; conditions: 48 h
Method: as §1, §2

[4] = Homo sapiens, Fibroblast, 50 k HFF, read-out: avg 50 k HFF IC50
[5] = Homo sapiens, Fibroblast, 3 k HFF, read-out: avg 3 k HFF IC50
[6] = 3 k HFF, read-out: avg 3 k HFF IC50
[7] = 50 k HFF, read-out: avg 50 k HFF IC50

T1 sequence (P49327 2207-2511 limits assumed): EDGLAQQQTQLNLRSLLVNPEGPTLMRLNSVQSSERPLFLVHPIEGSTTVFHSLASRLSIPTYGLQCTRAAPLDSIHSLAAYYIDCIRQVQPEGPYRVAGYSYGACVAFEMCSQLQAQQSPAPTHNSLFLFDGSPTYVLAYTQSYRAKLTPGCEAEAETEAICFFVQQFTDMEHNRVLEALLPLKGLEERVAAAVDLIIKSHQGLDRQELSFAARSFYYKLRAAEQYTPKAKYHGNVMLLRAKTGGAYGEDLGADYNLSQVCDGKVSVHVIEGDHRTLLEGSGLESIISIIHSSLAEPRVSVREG

CCCCCC[C@@H]1C(=O)O[C@H]1C[C@@H](COS(=O)(=O)c1ccc(C)cc1)OC(=O)CNC=O
Ki [1]: 0.1 µM

CCCCCCCCCCC[C@H](C[C@@H]1OC(=O)[C@H]1CC)OC(=O)CNC=O
IC50 ([2]; 48 h): 1.3 µM | Ki [1]: 0.23 µM | IC50 [3, 4]: 9.7 µM

CCCCCCCCCCCCC[C@H](C[C@@H]1OC(=O)[C@@H]1CCCCCC)OC(=O)CNC=O
Ki [1]: 0.04 µM

CCCCCCC/C=C/CC[C@@H](C[C@@H]1OC(=O)[C@H]1CCCCCC)OC(=O)[C@H](CC(C)C)NC=O
IC50 ([2]; 48 h): 62.5 µM | IC50 [3, 5]: 43.9 µM | IC50 [3, 4]: 94.9 µM

CCCCCCCCCCC[C@@H](C[C@@H]1OC(=O)[C@H]1CCCCCC)OC(=O)c1ccccc1 [drawing 169]
IC50 ([2]; 48 h): > 100 µM | IC50 [3, 5]: > 100 µM | IC50 [3, 4]: > 100 µM

CCCCCCCCCCC[C@@H](C[C@@H]1OC(=O)[C@H]1CCCCCC)OC(=O)CNC=O
IC50 ([2]; 48 h): 4.8 µM | IC50 [3, 5]: 19.9 µM | IC50 [3, 4]: 27.6 µM

CCCCCCCCCCC[C@@H](C[C@@H]1OC(=O)[C@H]1CCCCCC)OC(=O)[C@H](CC(C)C)NC=O
IC50 ([2]; 48 h): 20.1 µM | IC50 [3, 5]: > 100 µM | IC50 [3, 4]: > 100 µM

C=CCC[C@H](C[C@@H]1OC(=O)[C@H]1CCCCCC)OC(=O)CNC=O
Ki [1]: 0.53 µM

CCCCCC[C@@H]1C(=O)O[C@H]1C[C@H](CC/C=C/c1ccc(F)cc1)OC(=O)[C@H](CC(C)C)NC=O
IC50 ([2]; 48 h): 14.1 µM | Ki [1]: 0.15 µM | IC50 [3, 5]: 32.9 µM | IC50 [3, 4]: 49.9 µM

CCCCCCCCCCC[C@@H](O)C[C@@H]1OC(=O)[C@H]1CCCCCC
IC50 ([2]; 48 h): 26.8 µM | Ki [1]: 0.48 µM | IC50 [3, 5]: 40.4 µM | IC50 [3, 4]: 29.3 µM

CCCCCCCCCCCCC[C@@H](CC1OC(=O)[C@H]1CCCCCC)OC(=O)[C@H](Cc1cnc[nH]1)NC=O (some centres unmarked)
IC50 ([2]; 48 h): 37.1 µM | Ki [1]: 0.17 µM | IC50 [3, 5]: 15.8 µM | IC50 [3, 4]: 28 µM

CCCCCCCCCCCCC[C@H](CC1OC(=O)[C@@H]1CCCCCC)OC(=O)CNC=O (some centres unmarked)
IC50 ([2]; 48 h): > 100 µM | IC50 [3, 5]: > 100 µM | IC50 [3, 4]: > 100 µM

CCCCCC[C@@H]1C(=O)OC1C[C@@H](C)OC(=O)CNC=O (some centres unmarked)
IC50 ([2]; 48 h): > 100 µM | IC50 [3, 5]: > 100 µM | IC50 [3, 4]: > 100 µM

CCCCCC[C@@H]1C(=O)O[C@H]1C[C@H](CC/C=C/COCCOCCOCC(=O)OCc1ccccc1)OC(=O)[C@H](CC(C)C)NC=O
IC50 ([2]; 48 h): 47.3 µM | Ki [1]: 0.23 µM | IC50 [3, 5]: 70.4 µM | IC50 [3, 4]: > 100 µM

C=CCC[C@H](CC1OC(=O)[C@H]1CCCCCC)OC(=O)CNC=O (some centres unmarked) [listing 1 of 2 here]
IC50 [2]: 54 µM | Ki [1]: 0.06 µM | IC50 [3, 6]: > 100 µM | IC50 [3, 7]: > 100 µM

CCCCCCCCCCC[C@@H](C[C@@H]1OC(=O)[C@H]1CCCCCC)OC(=O)CN(C)C [drawing 152]
IC50 [2]: 26.9 µM | IC50 [3, 6]: 37.3 µM | IC50 [3, 7]: 49.3 µM

CCCCCC[C@@H]1C(=O)O[C@H]1C[C@H](CCCCC)OC(=O)[C@@H](NC=O)C(C)C
IC50 [3, 4]: > 100 µM

CCCCCCCCCCC[C@H](CC1OC(=O)[C@H]1CCCC)OC(=O)CNC=O (some centres unmarked)
IC50 ([2]; 48 h): 35.7 µM | Ki [1]: 0.16 µM | IC50 [3, 5]: 31.1 µM | IC50 [3, 4]: 43.2 µM

CCCCCC[C@@H]1C(=O)OC1C[C@@H](COS(=O)(=O)c1ccc(C)cc1)OC(=O)CNC=O (some centres unmarked)
IC50 ([2]; 48 h): > 100 µM | IC50 [3, 5]: > 100 µM | IC50 [3, 4]: > 100 µM

CCCCCCCCCCC[C@@H](C[C@@H]1OC(=O)[C@H]1CCCCCC)OC(=O)c1ccccc1 [drawing 150]
IC50 [2]: > 100 µM | IC50 [3, 6]: > 100 µM | IC50 [3, 7]: > 100 µM

C/C=C/CC[C@@H](C[C@@H]1OC(=O)[C@H]1CCCCCC)OC(=O)[C@@H](NC=O)C(C)C
IC50 ([2]; 48 h): 23 µM | IC50 [3, 5]: 35 µM | IC50 [3, 4]: 27.6 µM

C=CCC[C@H](CC1OC(=O)[C@H]1CCCCCC)OC(=O)CNC=O (some centres unmarked) [listing 2 of 2 here]
IC50 ([2]; 48 h): > 100 µM | IC50 [3, 5]: > 100 µM | IC50 [3, 4]: > 100 µM

CCCCCCC/C=C/CC[C@@H](C[C@@H]1OC(=O)[C@H]1CCCCCC)OC(=O)[C@H](Cc1ccccc1)NC=O
IC50 ([2]; 48 h): > 100 µM | Ki [1]: 0.15 µM | IC50 [3, 5]: 24.9 µM | IC50 [3, 4]: 35.9 µM

CCCCCCCCCCC[C@@H](CC1OC(=O)[C@H]1CCCCCC)OC(=O)CN(C)C (some centres unmarked) [drawing 171]
IC50 ([2]; 48 h): 52.1 µM | IC50 [3, 6]: 105 µM | IC50 [3, 4]: 75.6 µM

CCCCCCCCCCC[C@H](C[C@@H]1OC(=O)[C@H]1CCCCCC)OC(=O)CNC=O
IC50 ([2]; 48 h): 11.7 µM | IC50 [3, 5]: 46.8 µM | IC50 [3, 4]: 40.5 µM

C=CCC[C@@H](C[C@@H]1OC(=O)[C@H]1CCCCCC)OC(=O)[C@H](Cc1ccccc1)NC=O
IC50 ([2]; 48 h): 24.5 µM | Ki [1]: 0.22 µM | IC50 [3, 5]: 73.6 µM | IC50 [3, 4]: 65 µM

CCCCCC[C@@H]1C(=O)O[C@H]1C[C@@H](C)OC(=O)CNC=O
Ki [1]: 0.09 µM

CCCCCCCCCCC[C@@H](C[C@@H]1OC(=O)[C@H]1CC)OC(=O)CNC=O
Ki [1]: 0.16 µM

C/C=C/CC[C@@H](C[C@@H]1OC(=O)[C@H]1CCCCCC)OC(=O)[C@H](Cc1ccccc1)NC=O
IC50 ([2]; 48 h): 38.3 µM | Ki [1]: 0.23 µM | IC50 [3, 5]: 61.2 µM | IC50 [3, 4]: 52.5 µM

C/C=C/CC[C@H](CC1OC(=O)[C@H]1CCCCCC)OC(=O)CNC=O (some centres unmarked)
IC50 ([2]; 48 h): 57.3 µM | IC50 [3, 5]: 39.9 µM | IC50 [3, 4]: 37 µM

C/C=C/CC[C@H](C[C@@H]1OC(=O)[C@H]1CCCCCC)OC(=O)[C@@H](NC=O)C(C)C
IC50 [3, 5]: 101 µM | IC50 [3, 4]: > 100 µM

CCCCCCCCCCC[C@@H](CC1OC(=O)[C@H]1CC)OC(=O)CNC=O (some centres unmarked)
IC50 ([2]; 48 h): 88.4 µM | IC50 [3, 5]: > 100 µM | IC50 [3, 4]: > 100 µM
